Reference: patent US20230158042A1, “COMBINATION CANCER THERAPY WITH PENTAAZA MACROCYCLIC RING COMPLEX AND HORMONE THERAPY AGENT” (Galera Labs, LLC, priority 2020, published 2023)

What was measured:
MCF7-MnSOD^K68Q cells = assay: Clonogenic cell survival in MCF7-MnSOD^K68Q cells; type: cell-based, human
Procedure: FIGS. 25a-25b show clonogenic cell survival studies in MCF7-MnSOD^K68Q cells exposed to either: Fulv at 100 nM (in FIG. 25a); or Palb at 0.5 µM (in FIG. 25b) using standard methods. […] Error bars are ± 1 SEM. Experiments in triplicate. *** p < 0.001.
(§1) Clonogenic cell survival assay. For the clonogenic survival analysis, exponentially growing cells were replated using appropriate dilutions, and clonogenic survival was evaluated after 14 days in regular growth medium. Cells were stained with crystal violet, and colonies of >50 cells were counted and utilized to calculate clonogenic survival^46.

[1] = system: MCF7 cells overexpressing MnSOD^K68Q; assay: MTT cell viability, MCF7 cells overexpressing MnSOD^K68Q; type: cell-based, human; details: 48 hours
Procedure: (§2) In FIGS. 28a-28b, cell lysates of 250 nM, 500 nM, 1 µM cisplatin-resistant and 500pM, 1 nM and 2 nM doxorubicin-resistant MCF7 cells (cultured in drug-containing media for 3 months) were collected and immunoblotted for MnSOD—K68—Ac, MnSOD, actin and tubulin. In FIGS. 28d-28e, cell lysates of 2.5 µM, 5 µM, 10 µM cisplatin-resistant and 5 nM, 10 nM and 20 nM doxorubicin-resistant T47D cells (cultured in drug-containing media for 3 months) were collected and immunoblotted for MnSOD—K68—Ac, MnSOD, actin and tubulin. In FIGS. 28c and 28f, 10,000 MCF7 or T47D cells overexpressed with empty vector, MnSOD^WT, MnSOD^K68R or MnSOD^K68Q were plated in 96 well plate and treated with cisplatin (1 µM for MCF7 and 10 µM for T47D) or doxorubicin (2 nM for MCF7 and 20 nM for T47D) the next day. After 48 hours, MTT assay is conducted to determine the cell viability after chemotherapy drug treatment.
(§3) Cell proliferation was measured using MTT proliferation assay kit (ab211091). 10,000 exponentially growing cells were plated in regular growth medium per well into 96-well plates in triplicate. Cells were treated with specified drugs after overnight and incubated for 48 hours. […] The absorbance was read at OD=590 nm and used to evaluate cell proliferation.

[2] = system: T47D cells overexpressing MnSOD^K68Q; assay: MTT cell viability, T47D cells overexpressing MnSOD^K68Q; type: cell-based, human; details: 48 hours
Procedure: as §2, §3

[3] = system: rat model of collagen-induced arthritis; details: cited from earlier work
adult mice = details: lethal total body irradiation of adult mice; cited from earlier work
[4] = system: hamster model of acute, radiation-induced oral mucositis; details: cited from earlier work
colon of rats = details: experimental model of colitis; cited from earlier work
[5] = system: rat model of inflammation; details: cited from earlier work
[6] = system: MCF7 cells expressing shSIRT3; assay: Clonogenic cell survival in MCF7-shSIRT3 cells with hydroxy-Tam; type: cell-based, human; details: 1 µM hydroxy-Tam for 120 h
Procedure: All experiments were done in triplicate. Error bars represent ± 1 SEM. **p < 0.01, and ***p < 0.001. Three-armed groups were analyzed via a one-way ANOVA statistical analysis with Tukey’s post-analysis, and two-armed groups were analyzed by a t-test.
as §1

[7] = system: T47D cells expressing shSIRT3; assay: Clonogenic cell survival in T47D-shSIRT3 cells with hydroxy-Tam; type: cell-based, human; details: 1 µM 4-hydroxy-Tam for 24 h
Text: FIGS. 14a-14g are images and plots that illustrate that loss of SIRT3-induced MnSOD—K68 deacetylation leads to hydroxy-Tam resistance, and that such resistance is associated with increased lysine acetylation in human breast cancer cells, while mimicking deacetylation of MnSOD—K68 or pharmacologically mimicking the activity of deacetylated lysine 68 MnSOD with a manganese pentaazamacrocyclic dismutase mimetic has opposing effects. With respect to FIG. 14a, T47D-MnSOD^WT, T47D-MnSOD^K68R, and T47D-MnSOD^K68D permanent cell lines were selected for hydroxy-Tam resistance in 1 µM for 3 months, and clonogenic cell survival experiments were completed. […] With respect to FIG. 14c, T47D and T47D-HTR cells, with and without exposure to 1 µM 4-hydroxy-Tam for 24 h (HT), were measured for hydroxy-Tam response by clonogenic survival experiments. […] The cell lysates were analyzed by immunoblotting with anti-MnSOD-K122-Ac (validated as a SIRT3 deacetylation target in Tao et al., 2010, Cancer Cell), anti-MnSOD, anti-OSCP-K139-Ac (validated as a SIRT3 deacetylation target in Tao et al., 2010, Cancer Cell), anti-OSCP, anti-IDH2K413-Ac (validated as a SIRT3 deacetylation target in Someya et al., 2010, Cancer Cell), anti-IDH2, and anti-actin. […]
Clonogenic cell survival assay. […] Cells were stained with crystal violet, and colonies of >50 cells were counted and utilized to calculate clonogenic survival^46.

[8] = system: T47D cells constitutively expressing MnSOD^K68Q; assay: Clonogenic cell survival in T47D-MnSOD^K68Q cells with hydroxy-Tam; type: cell-based, human; details: 1 µM hydroxy-Tam; compared to cells expressing MnSOD^K68WT or MnSOD^K68R
LNCaP-MnSOD^K68Q cells = assay: Clonogenic cell survival in LNCaP-MnSOD^K68Q cells; type: cell-based; details: 10 µM of ENZ for 72 hr
Procedure: In FIG. 20a, clonogenic cell survival experiments were done in LNCaP-ENZR cells infected with lenti-MnSOD^K68R or lenti-MnSOD^K68Q, in the presence of ENZ (10 µM). In FIG. 20b, clonogenic survival assays were done in LNCaP cells infected with lenti-MnSOD^WT, lenti-MnSOD^K68R, and lenti-MnSOD^K68Q, and selected with neomycin, and placed in 10 µM of ENZ for 72 hr. Error bars ± 1 SEM. Experiments were done in triplicate. **p < 0.01.
FIGS. 21a-21b are a chart and graph showing that pharmacologically mimicking the activity of deacetylated lysine 68 MnSOD with a manganese pentaazamacrocyclic dismutase mimetic both inhibited the growth of LNCaP-ENZR tumors and reversed the enzalutamide resistance in LNCaP-ENZR / LNCaP—MnSOD^K68Q cells and tumors. In FIG. 21a, clonogenic cell survival experiments were performed in LNCaP-ENZR (left two bars) and LNCaP—MnSOD^K68Q (right two bars) treated with ENZ, with or without GC4419 (20 µM) for 5 days. […] Tumor volumes were measured three times a week for 46 days. For each group n=10. Error bars ± 1 SEM. All experiments done in triplicate. **p < 0.01.

C[C@]12CC[C@@H]3c4ccc(O)cc4C[C@@H](CCCCCCCCC[S+]([O-])CCCC(F)(F)C(F)(F)F)[C@H]3[C@@H]1CC[C@@H]2O (stereo partly drawn) [Fulv, fulvestrant]
clonogenic tumor cell survival (MCF7-MnSOD^K68Q cells; Fulv at 100 nM, compared to MCF7 cells expressing MnSOD^WT): exhibited resistance

COc1cccc2c1C(=O)c1c(O)c3c(c(O)c1C2=O)C[C@@](O)(C(=O)CO)C[C@@H]3O[C@H]1C[C@H](N)[C@H](O)[C@H](C)O1 [DXR, doxorubicin]
cell viability after drug treatment (MTT) ([1]; DXR 2 nM): higher resistance | cell viability after drug treatment (MTT) ([2]; DXR 20 nM): higher resistance

[NH2][Pt]([NH2])([Cl])[Cl] [CDDP, cisplatin]
cell viability after drug treatment (MTT) ([1]; CDDP 1 µM): higher resistance | cell viability after drug treatment (MTT) ([2]; CDDP 10 µM): higher resistance

[Cl-].[Cl-].[Mn+2].c1cc2nc(c1)CN[C@@H]1CCCC[C@H]1NCCN[C@@H]1CCCC[C@H]1NC2 [GC4403]
joint disease [3]: prevent joint disease | radiation damage (adult mice): attenuate the radiation damage | radiation damage [4]: attenuate the radiation damage | injury to the colon (colon of rats): very significantly reduce the injury to the colon | inflammation [5]: inhibit inflammation

4-hydroxytamoxifen [hydroxy-Tam]
hydroxy-Tam cytotoxicity (clonogenic survival) [6]: resistance to hydroxy-Tam cytotoxicity | cytotoxicity of hydroxy-Tam (clonogenic survival) (MCF7-MnSOD^K68Q cells; 1 µM hydroxy-Tam for 5 days, compared to cells expressing MnSOD^K68WT or MnSOD^K68R): significant resistance to the cytotoxicity of hydroxy-Tam | hydroxy-Tam cytotoxicity (clonogenic survival) [7]: resistance to hydroxy-Tam cytotoxicity | cytotoxicity of hydroxy-Tam (clonogenic survival) [8]: significant resistance to the cytotoxicity of hydroxy-Tam

CNC(=O)c1ccc(N2C(=S)N(c3ccc(C#N)c(C(F)(F)F)c3)C(=O)C2(C)C)cc1F [ENZ, enzalutamide, reference compound]
response to ENZ (clonogenic survival) (LNCaP-MnSOD^K68Q cells): ENZR phenotype
